Among the data in US12686692B2, “KRas G12D inhibitors” (Mirati Therapeutics, Inc., priority 2020, dated 2026) are IC50 values, retold here.

The structures appear in SMILES notation. Bounds are passed on as bounds.

Test [1] deals with KRas G12D-mediated Phosphorylation of ERK. In words: Inhibition of KRas G12D-mediated Phosphorylation of ERK in AGS cells. It counts as cell-based. The conditions noted are these: Homo sapiens; AGS cells expressing G12D, 3 hours, phospho-ERK normalized to GAPDH. How it is done: AGS cells (ATCC CRL-1739) expressing G12D were grown in DMEM medium supplemented with 10% fetal bovine serum, 10 mM HEPES, and Penicillin/Streptomycin. Cells were plated in tissue culture treated 96 well plates at a density of 40,000 cells/well and allowed to attach for 12-14 hours. Diluted compounds were then added in a final concentration of 0.5% DMSO. After 3 hours, the medium was removed, 150 μl of 4.0% formaldehyde was added and the plates incubated at room temperature for 20 minutes. The plates were washed with PBS, and permeabilized with 150 μL of ice cold 100% methanol for 10 minutes. Non-specific antibody binding to the plates was blocked using 100 μL Licor blocking buffer (Li-Cor Biotechnology, Lincoln NE) for 1 hour at room temperature.
The amount of phospho-ERK was determined using an antibody specific for the phosphorylated form of ERK and compared to the amount of GAPDH. Primary antibodies used for the detection were added as follows: Phospho-ERK(Cell Signaling cs-9101) diluted 1:500 and GAPDH(Millipore MAB374) diluted 1:5000 in Licor block+0.05% Tween 20. The plates were incubated for 2 hours at room temperature. The plates were washed with PBS+0.05% Tween 20.
Secondary antibodies used to visualize primary antibodies were added as follows: Anti-rabbit-680 diluted 1:1000 and Anti-mouse-800 diluted 1:1000 both in Licor block+0.05% Tween20, and were incubated for 1 hour at room temperature. The plates were washed with PBS+0.05% Tween 20. A 100 μl aliquot of PBS was added to each well and the plates were read on a Li-Cor Odyssey CLX plate reader.
The phospho-ERK(Thr202/Tyr204 signal was normalized to the GAPDH signal for each well and percent of DMSO control values were calculated. IC50 values were generated using a 4-parameter fit of the dose response curve.

The target of test [2] is KRas G12D (Homo sapiens, UniProt P01116, G12D). As to the kind of experiment: KRas G12D Binding Assay (TR-FRET displacement of labeled tracer). As to conditions: TR-FRET displacement of Cy5 labelled tracer, biotinylated GDP-loaded KRAS G12D (aa 1:169), 60 minute incubation at 22° C. The arrangement: corresponding to amino acids 1:169, produced at Array BioPharma; biotin (protein is biotinylated). An outline of the steps:
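Biotinylated GDP-loaded human KRAS G12D (aa 1–169) incubated with Cy5 tracer, Eu-streptavidin and compound (2% DMSO final) in 50 mM HEPES pH 7.5, 5 mM MgCl2, 0.005% Tween-20, 1 mM DTT, 60 min at 22 °C. TR-FRET ratio converted to percent of control; IC50 at 50 POC from 4-parameter logistic fit.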

Sequence of KRas G12D (P01116 1-169 isoform P01116-2 G12D): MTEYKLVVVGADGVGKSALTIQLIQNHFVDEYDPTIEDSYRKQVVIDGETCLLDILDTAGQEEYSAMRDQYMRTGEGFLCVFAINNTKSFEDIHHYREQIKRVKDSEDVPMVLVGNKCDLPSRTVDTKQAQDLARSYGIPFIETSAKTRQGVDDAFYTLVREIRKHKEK

For `CCc1cccc2cccc(N3CCc4c(nc(OCC56CCCN5C(CO)CC6)nc4N4C[C@H]5CC[C@@H](C4)N5)C3)c12` (mixture of isomers) [Example 103, (7a-(((4-((1R,5S)-3,8-diazabicyclo[3.2.1]octan-3-yl)-7-(8-ethylnaphthalen-1-yl)-5,6,7,8-tetrahydropyrido[3,4-d]pyrimidin-2-yl)oxy)methyl)hexahydro-1H-pyrrolizin-3-yl)methanol], the concentration for half-maximal inhibition (IC50) was determined as 6220 nM in test [1] and 3.9 nM in test [2].

As for `CCc1cccc2cc(O)cc(N3CCc4c(nc(OCC56CCCN5CCC6)nc4N4C[C@H]5CC[C@@H](C4)N5)C3)c12` [Example 14, 4-(4-((1R,5S)-3,8-diazabicyclo[3.2.1]octan-3-yl)-2-((tetrahydro-1H-pyrrolizin-7a(5H)-yl)methoxy)-5,8-dihydropyrido[3,4-d]pyrimidin-7(6H)-yl)-5-ethylnaphthalen-2-ol], the figures for the IC50 in test [1] and in test [2] were 21 nM and 1.1 nM, respectively.

As to `CCc1cccc2cccc(N3CCc4c(nc(OC[C@]56CCCN5[C@@H](COC(=O)N5CCOCC5)CC6)nc4N4C[C@H]5CC[C@@H](C4)N5)C3)c12` [Example 97, ((3R,7aR)-7a-(((4-((1R,5S)-3,8-diazabicyclo[3.2.1]octan-3-yl)-7-(8-ethylnaphthalen-1-yl)-5,6,7,8-tetrahydropyrido[3,4-d]pyrimidin-2-yl)oxy)methyl)hexahydro-1H-pyrrolizin-3-yl)methyl morpholine-4-carboxylate], the IC50 in test [1] amounted to 187 nM; in test [2] it was 1.2 nM.

Take `Cc1cccc2cccc(N3CCc4c(nc(OCC56CCCN5C[C@H](F)C6)nc4N4CC5CCC(C4)N5)C3)c12` (mixture of isomers) [Example 50, 4-((1R,5S)-3,8-diazabicyclo[3.2.1]octan-3-yl)-2-((2-fluorotetrahydro-1H-pyrrolizin-7a(5H)-yl)methoxy)-7-(8-methylnaphthalen-1-yl)-5,6,7,8-tetrahydropyrido[3,4-d]pyrimidine]: the IC50 is > 16700 nM in test [1] and 7.1 nM in test [2].

Take `F[C@H]1CN2CCCC2(COc2nc3c(c(N4CC5CCC(C4)N5)n2)CCN(c2cccc(Cl)c2C2CC2)C3)C1` (mixture of isomers) [Example 17, 4-((1R,5S)-3,8-diazabicyclo[3.2.1]octan-3-yl)-7-(3-chloro-2-cyclopropylphenyl)-2-((2-fluorotetrahydro-1H-pyrrolizin-7a(5H)-yl)methoxy)-5,6,7,8-tetrahydropyrido[3,4-d]pyrimidine (racemic, trans)]: the values for the IC50 in test [1] and in test [2] were > 16700 nM and 29.5 nM, respectively.

Turning to `CN(C)C(=O)OC[C@H]1CCC2(COc3nc4c(c(N5CC6CCC(C5)N6)n3)CCN(c3cccc(Cl)c3C3CC3)C4)CCCN12` (stereo partly drawn) [Example 33, (7a-(((4-((1R,5S)-3,8-diazabicyclo[3.2.1]octan-3-yl)-7-(3-chloro-2-cyclopropylphenyl)-5,6,7,8-tetrahydropyrido[3,4-d]pyrimidin-2-yl)oxy)methyl)hexahydro-1H-pyrrolizin-3-yl)methyl dimethylcarbamate (trans enantiomers)], the IC50 in test [1] was 5560 nM; in test [2], 50.2 nM.

In the case of `CCc1cccc2cccc(N3CCc4c(nc(OC[C@@H]5CCCN5C)nc4N4C[C@H]5CC[C@@H](C4)N5)C3)c12` [Example 8, 4-((1R,5S)-3,8-diazabicyclo[3.2.1]octan-3-yl)-7-(8-ethylnaphthalen-1-yl)-2-(((S)-1-methylpyrrolidin-2-yl)methoxy)-5,6,7,8-tetrahydropyrido[3,4-d]pyrimidine], the IC50 in test [1] was determined as 12600 nM; in test [2], 5.5 nM.

As to `CCc1cccc2cccc(N3CCc4c(nc(OCC56CCCN5C(COC(=O)N5CC[C@H](O)C5)CC6)nc4N4C[C@H]5CC[C@@H](C4)N5)C3)c12` (stereo partly drawn) [Example 105, (7a-(((4-((1R,5S)-3,8-diazabicyclo[3.2.1]octan-3-yl)-7-(8-ethylnaphthalen-1-yl)-5,6,7,8-tetrahydropyrido[3,4-d]pyrimidin-2-yl)oxy)methyl)hexahydro-1H-pyrrolizin-3-yl)methyl (3S)-3-hydroxypyrrolidine-1-carboxylate], the results for the IC50 in test [1] and in test [2] were 561 nM and 2.3 nM, respectively.

As for `CCc1cccc2cccc(N3CCc4c(nc(OCC56CCCN5CCC6)nc4N4C[C@H]5CC[C@@H](C4)N5)C3)c12` [Example 10, 4-((1R,5S)-3,8-diazabicyclo[3.2.1]octan-3-yl)-7-(8-ethylnaphthalen-1-yl)-2-((tetrahydro-1H-pyrrolizin-7a(5H)-yl)methoxy)-5,6,7,8-tetrahydropyrido[3,4-d]pyrimidine], the IC50 stood at 738 nM in test [1] and 1.1 nM in test [2].

For `F[C@H]1CN2CCCC2(COc2nc3c(c(N4CC5CCC(C4)N5)n2)CCN(c2cccc(Cl)c2C(F)(F)F)C3)C1` (mixture of isomers) [Example 48, 4-((1R,5S)-3,8-diazabicyclo[3.2.1]octan-3-yl)-7-(3-chloro-2-(trifluoromethyl)phenyl)-2-((2-fluorotetrahydro-1H-pyrrolizin-7a(5H)-yl)methoxy)-5,6,7,8-tetrahydropyrido[3,4-d]pyrimidine], the figures for the IC50 in test [1] and in test [2] were 5220 nM and 5.5 nM, respectively.

Consider `F[C@H]1CN2CCCC2(COc2nc3c(c(N4CC5CCC(C4)N5)n2)CCN(c2cccc4cccc(Cl)c24)C3)C1` (mixture of isomers) [Example 46, 4-((1R,5S)-3,8-diazabicyclo[3.2.1]octan-3-yl)-7-(8-chloronaphthalen-1-yl)-2-((2-fluorotetrahydro-1H-pyrrolizin-7a(5H)-yl)methoxy)-5,6,7,8-tetrahydropyrido[3,4-d]pyrimidine], for which the IC50 came out at 4570 nM in test [1] and 4.4 nM in test [2].

`CCc1cccc2cccc(N3CCc4c(nc(OCC56CCCN5[C@@H](COC(=O)NC)CC6)nc4N4CC5CCC(C4)N5)C3)c12` (stereo partly drawn) [Example 5, (7a-(((4-((1R,5S)-3,8-diazabicyclo[3.2.1]octan-3-yl)-7-(8-ethylnaphthalen-1-yl)-5,6,7,8-tetrahydropyrido[3,4-d]pyrimidin-2-yl)oxy)methyl)hexahydro-1H-pyrrolizin-3-yl)methyl methylcarbamate (trans enantiomers)]: the IC50 is 142 nM in test [1] and 1.6 nM in test [2].

As for `CNC(=O)OC[C@H]1CCC2(COc3nc4c(c(N5CC6CCC(C5)N6)n3)CCN(c3cccc5cccc(F)c35)C4)CCCN12` (stereo partly drawn) [Example 34, (7a-(((4-((1R,5S)-3,8-diazabicyclo[3.2.1]octan-3-yl)-7-(8-fluoronaphthalen-1-yl)-5,6,7,8-tetrahydropyrido[3,4-d]pyrimidin-2-yl)oxy)methyl)hexahydro-1H-pyrrolizin-3-yl)methyl methylcarbamate (trans enantiomers)], the figures for the IC50 in test [1] and in test [2] were 3910 nM and 111 nM, respectively.

In the case of `CCc1cccc2cccc(N3CCc4c(nc(OC[C@]56CCCN5[C@@H](COC(=O)NC)CC6)nc4N4C[C@H]5CC[C@@H](C4)N5)C3)c12` [Example 18, ((3R,7aR)-7a-(((4-((1R,5S)-3,8-diazabicyclo[3.2.1]octan-3-yl)-7-(8-ethylnaphthalen-1-yl)-5,6,7,8-tetrahydropyrido[3,4-d]pyrimidin-2-yl)oxy)methyl)hexahydro-1H-pyrrolizin-3-yl)methyl methylcarbamate], the IC50 in test [1] is 70 nM; in test [2], 2 nM.

With `CCc1c(F)ccc2cccc(N3CCc4c(nc(OC[C@]56CCCN5[C@@H](COC(=O)N5CCOCC5)CC6)nc4N4C[C@H]5CC[C@@H](C4)N5)C3)c12` [Example 98, ((3R,7aR)-7a-(((4-((1R,5S)-3,8-diazabicyclo[3.2.1]octan-3-yl)-7-(8-ethyl-7-fluoronaphthalen-1-yl)-5,6,7,8-tetrahydropyrido[3,4-d]pyrimidin-2-yl)oxy)methyl)hexahydro-1H-pyrrolizin-3-yl)methyl morpholine-4-carboxylate], the IC50 was 50 nM in test [1] and 0.7 nM in test [2].

`Oc1cc(N2CCc3c(nc(OCC45CCCN4C[C@H](F)C5)nc3N3CC4CCC(C3)N4)C2)c2ccccc2c1` (mixture of isomers) [Example 47, 4-(4-((1R,5S)-3,8-diazabicyclo[3.2.1]octan-3-yl)-2-((2-fluorotetrahydro-1H-pyrrolizin-7a(5H)-yl)methoxy)-5,8-dihydropyrido[3,4-d]pyrimidin-7(6H)-yl)naphthalen-2-ol]: the IC50 in test [1] turned out to be 537 nM; in test [2] it was 1 nM.
